Each molecule was assayed on CCRF-CEM cancer cells - leukemia (assay: Fluorometric Microculture Cytotoxicity Assay (FMCA), CCRF-CEM). Conditions: Homo sapiens, 72 h incubation.
Type: cell-based
Text: The Fluorometric Microculture Cytotoxicity Assay, FMCA (Larsson, R., et al.; Anticancer Res, 1989, 9, 1111-1119), is a three day non-clonogenic microplate-based cell viability assay used for measurement of the cytotoxic and/or cytostatic effect of compounds in vitro (Lindhagen, E. et al.; Nat. Protoc., 2008, 3, 1364-1369). FMCA represents a valuable method to measure cytotoxicity in a number of cell types, both cell lines and primary cells from patients (Larsson, R., et al.; Int. J. Cancer, 1992, 50, 177-185; Fridborg, H., et al.; Eur. J. Cancer, 1999. 35, 424-432; Dhar, S., et al.; Br. J. Cancer, 1996, 74, 888-896).
FMCA is based on the principle that fluorescein diacetate (FDA) is converted to the fluorescent probe fluorescein by esterases in the plasma membranes of living cells. For experiments, 96 or 384-well microplates are prepared with compounds and stored at −70° C. until use. Cells are then seeded into the drug-prepared plates and placed in an incubator for 72 h. On the last day of incubation, the plates are washed and a buffer containing FDA is added and incubated with the cells for 45 minutes. Finally the fluorescence per well is measured in a fluorometer and a Survival Index % (SI) for each compound-treated well is calculated with the equation: Compound-treated cells minus blank divided by control cells minus blank. A high SI-value indicates a large percentage of living cells and vice versa.
In subsequent experiments, compounds were tested, along with a number of approved cancer drugs (dasatinib, pazopanib, sorafenib, and sunitinib) as described above. Initially, the acute lymphoblastic leukemia cell line CCRF-CEM was used throughout. In the assay plates, medium was added to six empty wells (blank wells) and wells were filled with PBS and cell suspension and served as control wells. SI-values were then calculated for each compound-treated well as described above. All experiments were conducted twice and a new batch of plates was prepared for each experiment.
For dose-response experiments, 384-well plates were prepared as follows:
Compounds of the invention as well comparative kinase inhibitors sorafenib sunitinib, dasatinib, pazopanib and a reference compound disclosed in WO 2009/071535 (compound #107) were diluted with PBS to a concentration ten-times higher than the desired starting concentration. Then, a Biomek 2000 liquid handling system was employed to serially dilute the compounds in a deep-well 384-well plate. From this plate, assay plates containing 5 μl compound per well were prepared with the Biomek 2000. Certain compounds precipitated when diluted with PBS, and these compounds were therefore prepared in a 96-well plate manually as described above using culture medium RPMI 1640 instead of PBS.
The compounds were also tested at five concentrations, with five times serial dilution on the following cell types: CCRF-CEM, hTERT-RPE1 (normal retinal epithelial cells), hRPTEpiC (normal renal cells), and peripheral blood mononuclear cells (PBMC). Each experiment was performed three times, except for PBMC and hRPTEpiC, which were performed twice. SI-values were calculated, graphs were plotted using GraphPadPrism 5.0 (GraphPad Software Inc. La Jolla, Calif.) and IC50-values for each cell type and compound were determined from the curves.

SMILES	EC50 [nM]
c1ccc2c(CCNc3nccc(Nc4ccc5[nH]ccc5c4)n3)c[nH]c2c1 [Example 1, N^2-[2-(1H-indol-3-yl)ethyl]-N^4-(1H-indol-5-yl)pyrimidine-2,4-diamine]	4100
COc1ccc2[nH]cc(CCNc3nccc(Nc4ccc5[nH]ccc5c4)n3)c2c1 [Example 2, N^4-(1H-indol-5-yl)-N^2-[2-(5-methoxy-1H-indol-3-yl)ethyl]pyrimidine-2,4-diamine]	140
Cc1cc2cc(Nc3ccnc(NCCc4c[nH]c5ccccc45)n3)ccc2[nH]1 [Example 3, N^2-[2-(1H-indol-3-yl)ethyl]-N^4-(2-methyl-1H-indol-5-yl)pyrimidine-2,4-diamine]	290
Cc1cc2cc(Nc3ccnc(NCCc4c[nH]c5ccc(OCCN6CCOCC6)cc45)n3)ccc2[nH]1 [Example 6, N^4-(2-methyl-1H-indol-5-yl)-N^2-{2-[5-(2-morpholinoethoxy)-1H-indol-3-yl]ethyl}pyrimidine-2,4-diamine]	2900
Cc1cc2cc(Nc3ccnc(NCCc4c[nH]c5ccc(OC(F)(F)F)cc45)n3)ccc2[nH]1 [Example 7, N^4-(2-methyl-1H-indol-5-yl)-N^2-{2-[5-(trifluoromethoxy)-1H-indol-3-yl]ethyl}pyrimidine-2,4-diamine]	140
Cc1cc2cc(Nc3ccnc(NCCc4c[nH]c5ccc(O)cc45)n3)ccc2[nH]1 [Example 8, 3-{2-[4-(2-methyl-1H-indol-5-ylamino)pyrimidin-2-ylamino]ethyl}-1H-indol-5-ol]	3100
Cc1cc2cc(Nc3ccnc(NCCc4c[nH]c5ccc(F)cc45)n3)ccc2[nH]1 [Example 10, N^2-[2-(5-fluoro-1H-indol-3-yl)ethyl]-N^4-(2-methyl-1H-indol-5-yl)pyrimidine-2,4-diamine]	280
COc1ccc2c(CCNc3nccc(Nc4ccc5[nH]c(C)cc5c4)n3)c[nH]c2c1 [Example 11, N^2-[2-(6-methoxy-1H-indol-3-yl)ethyl]-N^4-(2-methyl-1H-indol-5-yl)pyrimidine-2,4-diamine]	150
COc1cccc2c(CCNc3nccc(Nc4ccc5[nH]c(C)cc5c4)n3)c[nH]c12 [Example 12, N^2-[2-(7-methoxy-1H-indol-3-yl)ethyl]-N^4-(2-methyl-1H-indol-5-yl)pyrimidine-2,4-diamine]	130
COC(=O)c1cc2cc(Nc3ccnc(NCCc4c[nH]c5ccc(OC)cc45)n3)ccc2[nH]1 [Example 16, methyl 5-{2-[2-(5-methoxy-1H-indol-3-yl)ethylamino]pyrimidin-4-ylamino}-1H-indole-2-carboxylate]	940
COc1ccc2[nH]cc(CCNc3nccc(Nc4ccc5[nH]c(C(=O)OCCO)cc5c4)n3)c2c1 [Example 17, 2-hydroxyethyl 5-{2-[2-(5-methoxy-1H-indol-3-yl)ethylamino]pyrimidin-4-ylamino}-1H-indole-2-carboxylate]	1400
COc1ccc2[nH]cc(CCNc3nccc(Nc4ccc5[nH]cnc5c4)n3)c2c1 [Example 18, N^4-(1H-benzo[d]imidazol-5-yl)-N^2-[2-(5-methoxy-1H-indol-3-yl)ethyl]pyrimidine-2,4-diamine]	420
COc1ccc2[nH]cc(CCNc3nccc(Nc4ccc5cc[nH]c5c4)n3)c2c1 [Example 20, N^4-(1H-indol-6-yl)-N^2-[2-(5-methoxy-1H-indol-3-yl)ethyl]pyrimidine-2,4-diamine]	140
COc1ccc2[nH]cc(CCNc3nccc(Nc4cccc5[nH]ccc45)n3)c2c1 [Example 21, N^4-(1H-indol-4-yl)-N^2-[2-(5-methoxy-1H-indol-3-yl)ethyl]pyrimidine-2,4-diamine]	59
Cc1cc2cc(Nc3nccc(NCCc4c[nH]c5ccccc45)n3)ccc2[nH]1 [Example 22, N^4-[2-(1H-indol-3-yl)ethyl]-N^2-(2-methyl-1H-indol-5-yl)pyrimidine-2,4-diamine]	3400
COc1ccc2[nH]cc(CCNc3ccnc(Nc4ccc5[nH]c(C)cc5c4)n3)c2c1 [Example 23, N^4-[2-(5-methoxy-1H-indol-3-yl)ethyl]-N^2-(2-methyl-1H-indol-5-yl)pyrimidine-2,4-diamine]	59

SMILES	EC50 [nM]
c1ccc2c(CCNc3ccnc(Nc4ccc5cc[nH]c5c4)n3)c[nH]c2c1 [Example 24, N^4-[2-(1H-indol-3-yl)ethyl]-N^2-(1H-indol-6-yl)pyrimidine-2,4-diamine]	1000 to 10000
c1ccc2c(CCNc3ccnc(Nc4cccc5[nH]ccc45)n3)c[nH]c2c1 [Example 25, N^4-[2-(1H-indol-3-yl)ethyl]-N^2-(1H-indol-4-yl)pyrimidine-2,4-diamine]	1000 to 10000
Cc1cc(Nc2ccc3[nH]c(C)cc3c2)nc(NCCc2c[nH]c3ccccc23)n1 [Example 26, N^2-[2-(1H-indol-3-yl)ethyl]-6-methyl-N^4-(2-methyl-1H-indol-5-yl)pyrimidine-2,4-diamine]	650
COc1ccc2[nH]cc(CCNc3nc(Nc4ccc5[nH]c(C)cc5c4)cc(C(N)=O)n3)c2c1 [Example 28, 2-[2-(5-methoxy-1H-indol-3-yl)ethylamino]-6-(2-methyl-1H-indol-5-ylamino)pyrimidine-4-carboxamide]	58
COc1ccc2[nH]cc(CCNc3ncc(C)c(Nc4ccc5[nH]c(C)cc5c4)n3)c2c1 [Example 29, N^2-[2-(5-methoxy-1H-indol-3-yl)ethyl]-5-methyl-N^4-(2-methyl-1H-indol-5-yl)pyrimidine-2,4-diamine]	57
COc1ccc2[nH]cc(CCNc3nc(Nc4ccc5[nH]c(C)cc5c4)cc(N4CCN(C)CC4)n3)c2c1 [Example 30, N^2-[2-(5-methoxy-1H-indol-3-yl)ethyl]-N^4-(2-methyl-1H-indol-5-yl)-6-(4-methylpiperazin-1-yl)pyrimidine-2,4-diamine]	3000
COc1cccc2[nH]cc(CCNc3nccc(Nc4ccc5[nH]c(C)cc5c4)n3)c12 [Example 47, N^2-[2-(4-methoxy-1H-indol-3-yl)ethyl]-N^4-(2-methyl-1H-indol-5-yl)pyrimidine-2,4-diamine]	330
CCCOc1ccc2[nH]cc(CCNc3nccc(Nc4ccc5[nH]c(C)cc5c4)n3)c2c1 [Example 48, N^4-(2-methyl-1H-indol-5-yl)-N^2-[2-(5-propoxy-1H-indol-3-yl)ethyl]pyrimidine-2,4-diamine]	1300
Cc1cc2cc(Nc3ccnc(NCCc4c[nH]c5ccc(OC(C)C)cc45)n3)ccc2[nH]1 [Example 49, N^2-[2-(5-isopropoxy-1H-indol-3-yl)ethyl]-N^4-(2-methyl-1H-indol-5-yl)pyrimidine-2,4-diamine]	100
COc1cc2[nH]cc(CCNc3nccc(Nc4ccc5[nH]c(C)cc5c4)n3)c2cc1OC [Example 50, N^2-[2-(5,6-dimethoxy-1H-indol-3-yl)ethyl]-N^4-(2-methyl-1H-indol-5-yl)pyrimidine-2,4-diamine]	180
COc1cc(C)c2[nH]cc(CCNc3nccc(Nc4ccc5[nH]c(C)cc5c4)n3)c2c1 [Example 51, N^2-[2-(5-methoxy-7-methyl-1H-indol-3-yl)ethyl]-N^4-(2-methyl-1H-indol-5-yl)pyrimidine-2,4-diamine]	76
COc1ccc2[nH]cc(CCNc3nccc(Nc4ccc5c(c4)ncn5C)n3)c2c1 [Example 52, N^2-[2-(5-methoxy-1H-indol-3-yl)ethyl]-N^4-(1-methyl-1H-benzo[d]imidazol-5-yl)pyrimidine-2,4-diamine]	430
COc1ccc2[nH]cc(CCNc3nccc(Nc4ccc5c(c4)nc(C)n5C)n3)c2c1 [Example 53, N^4-(1,2-dimethyl-1H-benzo[d]imidazol-5-yl)-N^2-[2-(5-methoxy-1H-indol-3-yl)ethyl]pyrimidine-2,4-diamine]	33
COc1ccc2[nH]cc(CCNc3nccc(Nc4cccc5c4ccn5C)n3)c2c1 [Example 54, N^2-[2-(5-methoxy-1H-indol-3-yl)ethyl]-N^4-(1-methyl-1H-indol-4-yl)pyrimidine-2,4-diamine]	2.8
CCOc1ccc2[nH]cc(CCNc3nc(C)cc(Nc4ccc5[nH]c(C)cc5c4)n3)c2c1 [Example 55, N^2-[2-(5-ethoxy-1H-indol-3-yl)ethyl]-6-methyl-N^4-(2-methyl-1H-indol-5-yl)pyrimidine-2,4-diamine]	53
